Legend:
[1] = Primary ocular irritation, sub-Tenon's injection; assay type: in vivo, rabbits; conditions: for Ocular irritation vs negative control eyes: two 0.1 ml sub-Tenon's injections, 24-72 h
Description: The test article, CA4P, was evaluated for primary ocular irritation. Two 0.1 ml injections of the appropriate CA4P concentration (0.1, 1.0, 10 and 100 mg/ml) were injected into the sub-Tenon's space of the right eye of two rabbits. A 0.2 ml portion of buffered saline solution was injected into the sub-Tenon's space of the left eyes to serve as a negative control. Ocular reactions were evaluated at 24, 48 and 72 hours after the sample instillation. On day 3, rabbits were euthanized and eyes were removed. The specimens were fixed and embedded, and histology was performed. Histopathologic changes in the eye tissues were recorded with an emphasis placed on examination of changes in the sub-Tenon's space.

[2] = test system: pathological myopia; test: Human patient with pathological myopia, phase I/II study; assay type: in vivo
Text: A person was originally examined on Day One after complaining of visual obstructions in their left eye. The patient had received ocular lens implants in both eyes approximately 2 years earlier to correct for myopia. The patient was diagnosed with pathological myopia (also known as proliferative myopathy and myopic macular degeneration) and received a total of four treatments of Photodynamic Therapy (PDT, Visudyne™) in the left eye over the course of the next 8 months. […] In June 2003, the patient was diagnosed with pathological myopia in the right eye as well.
About 3 months later, the patient was enrolled in an open-label, pilot (phase I/II), dose-escalation safety and tolerability study of CA4P. At that time, the patient's best corrected visual acuity was 20/50-3 in the left eye and 20/25-3 in the right eye, as determined by a Snellen back-lit visual acuity test. […] On Day One of the study, the patient began treatment with an intravenous infusion of CA4P (free acid), at a dose of 27 mg/m2, over a 10 minute period. […] The patient received second, third, and fourth infusions of CA4P on Days 8, 15, and 22 of the study, with a maintenance of visual acuity and no active leakage in either eye.

[3] = test system: corneal neovascularization; test: LHP-induced rabbit corneal neovascularization model, IP treatment; assay type: in vivo, New Zealand rabbits; conditions: for Effect on neovascular growth: 50 mg/kg IP
Text: To assess the ability of CA4P to inhibit corneal neovascularization, a rabbit corneal model was used in which neovascularization was induced by linoleic acid hydroperoxide (“LHP”) injection (Ueda et al., Angiogenesis, 1997, 1: 174-184). Injection of LHP in the corneal stroma stimulates the localized production of angiogenic cytokines within the cornea. Blood vessels in the circumlimbal plexus respond to the angiogenic stimulation by migrating towards the site of LHP injection. Therapeutic efficacy of systemically delivered CA4P was assessed by measuring the length of these proliferating vessels.
Vessels grew at a rate of 0.25 mm/day. Groups 2 and 4 were injected intraperitoneally (“IP”) with CA4P (50 mg/kg) after 3 and 10 days of vessel growth respectively. Treatment groups 1 and 3 were injected with saline control on day 3 and day 10 post-LHP injection. Surface photographs of the cornea were taken at 0, 3, 6, 12, 17, and 28 days post-LHP injection. Following each photographic session, corneal vessels were observed under an operating microscope and Castroviejo calipers were used to measure the length of the most prominent vessel.
In addition to longest-vessel measurements, histology analysis was undertaken on day 28 to assess the amount of dissolved extracellular matrix, vessel wall thickness, and degree of vessel branching. Euthanized animals were enucleated and the vitreous was removed from each eye prior to fixation in 4% paraformaldehyde for 45 minutes and 0.2M cacodylate buffer (pH 7.4) overnight. Eyes were embedded in paraffin, sectioned to a 3 um thickness, and stained with […] and eosin.

[4] = Biodistribution of 14C-CA4P following topical administration of a gel; assay type: in vivo, New Zealand rabbits
Description: ^14C-CA4P (OXiGENE Inc., Watertown, Mass.) was resuspended in 100 ul volume of saline solution and injected with a 30 G needle into the right eyes of anesthesized male New Zealand rabbits (4 months old, 1.8-2.5 kg, n=3 per sample). Three different concentrations of ^14C-CA4P were tested (1, 10, 100 mg/ml) corresponding to doses of 1, 5, and 5 uCi of applied radioactivity respectively. A blank control group was also included. Rabbits were anaesthetized at 1, 6, 24, and 48 hours for blood sampling. After blood collection, the animals were euthanized by Phenobarbital injection and the treated right eyes were removed from all test animals. Ocular tissue samples were dissected from the cornea, aqueous humor, vitreous humor, choroid, or retina, placed in 20-mi glass scintillation vials, vortexed, and incubated for 24 hrs with 500 ul digesting fluid. Plasma was separated from whole blood by centrifugation (1,800 g for 10 minutes). Both ocular tissue samples and plasma were incubated at room temperature with 16 ml of Hionic Fluor™ scintillation fluid for a period of 24 hours prior to radioactivity counting. Each sample was counted for 5 minutes in a Betamatic V counter (Bio-Tek Kontron Instruments, St Quentin en Yvelines, France). The conversion of counts per minute (“cpm”) into disintegrations per minute (“dpm”) was performed automatically by the beta-counter, using calibration curves obtained from ^14C-standards and quenching curves from the respective blank matrices spiked with ^14C-standards. The concentration of drug was determined according to nanogram equivalents of CA4P (ng-Eq/g of tissue) which was calculated from the measured dpm value, the weight of the tissue specimen, and the specific activity of the drug (0.37 mCi/mg), followed by subtraction of the corresponding background value from control eye tissue. A tissue concentration of 1 uM CA4P is equal to […] tissue.
Topical gels and solutions were developed for use as topical formulation suitable for the topical delivery of CA4P to the surface of the eye. Topical solutions (1, 3, and 10%) was directly prepared in 0.9% NaCl (Aguettant, Lyon, France) and sterilized with 0.2 um filter (pH 6.4 to 8.5, osmolarity 290 to 459 mosmol/kg H2O. Low viscosity topical gels (1,3,and 10%) were prepared in 0.5% carboxymethylcellulose (Sigma Aldrich Chimie, St. Quentin Fallavier Cedex, France) with 0.9% NaCl. The physicochemical specifications of each gel are listed in Table 5
Topical formulations were applied to the surface of right eyes at an applied dose of 5 uCi in a volume of 50 ul. Cornea was sampled instead of sclera. Samples were taken at […] and 24 hours.

[5] = early intervention, 50 mg/kg IP qd x 5 from Day 3 (Group 2)

COc1ccc(/C=C\c2cc(OC)c(OC)c(OC)c2)cc1OP(=O)([O-])[O-].[Na+].[Na+] [CA4P, combretastatin A4 disodium phosphate]
Ocular irritation vs negative control eyes ([1]; 0.1 and 1.0 mg/ml): no irritation was observed | Ocular irritation vs negative control eyes ([1]; 10 and 100 mg/ml): Slight irritation was observed | Irritation (Draize Scores) ([1]; Sub-Tenon's, 0-10 mg): No Irritation | Improvement of Snellen visual acuity, left eye ([2]; 27 mg/m2 i.v. weekly): improved by five lines to 20/20 vision | Leakage in fluorescein angiography of either eye ([2]; Day 8 after 27 mg/m2 i.v. infusion, active leakage in both eyes at baseline): No active leakage was observed | Histology of corneal vessels ([3]; Day 28, stained sections, vs vehicle (round and numerous)): vessels appeared narrow and less numerous | Vessel Length on Day 6 [3, 5]: 0.7 ± 0.16 mm | Vessel Length on Day 12 [3, 5]: 0.5 ± 0.61 mm | Vessel Length on Day 3 ([3]; early intervention, 50 mg/kg IP qd x 5 from Day 3 (Group 2), Day 3 = treatment start): 0.6 ± 0.12 mm | Effect on neovascular growth ([3]; intervention 10 days after angiogenic stimulation): the effect was the same | Effect on neovascular growth ([3]; intervention within 3 days of angiogenic stimulation): complete inhibition of neovascular growth | Vessel Length on Day 12 ([3]; late intervention, 50 mg/kg IP from Day 10 (Group 4), first column): 2.6 ± 0.29 mm | Vessel Length on Day 12 ([3]; late intervention, 50 mg/kg IP from Day 10 (Group 4), second column): 2.8 ± 0.49 mm | Regression rate of preformed vessels in the eye ([3]; rabbit eyes, preliminary work (FIGS. 3, 4)): accelerated the regression rate of preformed vessels | Cmax ([4]; aqueous humor, 1% topical gel): 2.4 µM | Cmax ([4]; aqueous humor, 3% topical gel): 8.2 µM | Cmax ([4]; aqueous humor, 10% topical gel): 13 µM | Cmax ([4]; choroid, 1% topical gel): 2.8 µM | Cmax ([4]; choroid, 3% topical gel): 10.7 µM | Cmax ([4]; choroid, 10% topical gel): 22.5 µM | Concentration of drug delivered ([4]; cornea, retina and choroid, all three gel formulations): > 1 µM | Cmax ([4]; cornea, 1% topical gel, 50 ul): 82 µM | Cmax ([4]; cornea, 3% topical gel, 50 ul): 118 µM | Cmax ([4]; cornea, 10% topical gel, 50 ul): 292 µM | Cmax ([4]; plasma, 1% topical gel): 0.09 µM | Cmax ([4]; plasma, 3% topical gel): 0.56 µM | Cmax ([4]; plasma, 10% topical gel): 1.63 µM | Cmax ([4]; retina, 1% topical gel): 1 µM | Cmax ([4]; retina, 3% topical gel): 5.8 µM | Cmax ([4]; retina, 10% topical gel): 5.8 µM | Time of highest concentrations of drug in the eye ([4]; topical gel): within the first hour

— patent US20040229960A1, “Compositions and methods of administering tubulin binding agents for the treatment of ocular diseases” (priority 2001, published 2004)
